The values below come from patent publication US5462726A, “Method of inhibiting side effects of solvents containing ricinoleic acid or castor oil or derivatives thereof employing a thromboxane A2 receptor antagonist and pharmaceutical compositions containing such solvents” (priority 1993, dated 1995).

Assay [1] deals with T1, thromboxane A2 /prostaglandin endoperoxide receptor (Oryctolagus cuniculus, UniProt Q6WQI8).
T1 sequence (Q6WQI8 1-233): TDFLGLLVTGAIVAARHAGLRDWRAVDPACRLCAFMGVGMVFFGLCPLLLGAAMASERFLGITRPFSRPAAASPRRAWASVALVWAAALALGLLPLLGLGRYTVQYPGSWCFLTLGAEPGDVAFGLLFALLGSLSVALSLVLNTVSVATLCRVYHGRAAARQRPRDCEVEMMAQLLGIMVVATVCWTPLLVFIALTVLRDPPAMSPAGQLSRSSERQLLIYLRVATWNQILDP
Particulars: against U-46,619-induced force; rabbit aorta; S. Moreland, unpublished; cited from earlier work.

Assay [2] concerns the target T1, thromboxane A2 /prostaglandin endoperoxide receptor. Put plainly: Antagonism of U-46,619-induced force in the jugular vein. Type of assay: cell-based. Particulars: rabbit jugular vein. As for the experimental part:
(§1) Male New Zealand white rabbits were euthanized by intravenous barbiturate overdose. The thoracic aorta and the left and right external jugular veins were then removed into warm (37° C.) physiological salt solution (PSS) of the following composition (mM): NaCl, 118.4; KCl, 4.7; CaCl2, 2.5; MgSO4, 1.2; NaHCO3, 24.9; KH2 PO4, 1.2; glucose, 11.1 and EDTA, 0.023; gassed with 95% O2 /5% CO2, pH 7.4. The vessels were cleaned of fat and loose adventitia and subsequently cut into rings 3-4 mm in width. The endothelium was removed from the rings, unless otherwise indicated, by gently rotating a metal probe in the lumen of the ring. The rings were then suspended in water-jacketed (37° C.) 10 ml tissue baths between two wire holders, one of which was attached to a fixed hook and the other to an isometric force transducer. Resting tension was set at 4 g for the aorta and 1 g for the jugular vein. The venous tissues were allowed to stabilize for a period of one hour and then challenged with a maximally effective concentration of bradykinin (1 μM) to evoke a tonic contracture. This response was used as a comparative reference response. Carbachol (1 μM) was introduced into the bath following stabilization of the bradykinin contracture to test for the presence of endothelium. […] The tissues were washed multiple times with fresh PSS and allowed to recover for one hour following complete relaxation from the previous bradykinin response. […] Inhibitors (enzyme or receptor) or their vehicle were introduced into the tissue bath 30 mins prior to the addition of stimulant. […]
(§2) Force (mean±S.E.) is expressed as a percentage of the corresponding bradykinin or phenylephrine reference response. KB values were determined by Schild analysis and KBapp by the following formula: KBapp =[antagonist]/agonist concentration ratio-1, where agonist concentration ratio=agonist EC50 measured in presence of antagonist/agonist EC50 measured in presence of vehicle. The statistical significance between means was determined using Student's t-test with p<0.05 considered statistically significant.

For assay [3], the system named is U-46,619-induced platelet aggregation. Particulars: Ogletree et al 1993; cited from earlier work.
Another assay has as its system jugular vein. Put plainly: Effect on ethanol-induced contraction of the jugular vein. The format is cell-based, rabbit. Particulars: 0.1 or 1 μM BMS-180291; n=3.
Assay [4] relates to Cremophor-induced force in the aorta (thromboxane A2 receptors). The experiment in a line: Antagonism of Cremophor-induced force in the aorta. Type of assay: cell-based, rabbit. How it is done:
Male New Zealand white rabbits were euthanized by intravenous barbiturate overdose. The thoracic aorta and the left and right external jugular veins were then removed into warm (37° C.) physiological salt solution (PSS) of the following composition (mM): NaCl, 118.4; KCl, 4.7; CaCl2, 2.5; MgSO4, 1.2; NaHCO3, 24.9; KH2 PO4, 1.2; glucose, 11.1 and EDTA, 0.023; gassed with 95% O2 /5% CO2, pH 7.4. The vessels were cleaned of fat and loose adventitia and subsequently cut into rings 3-4 mm in width. The endothelium was removed from the rings, unless otherwise indicated, by gently rotating a metal probe in the lumen of the ring. The rings were then suspended in water-jacketed (37° C.) 10 ml tissue baths between two wire holders, one of which was attached to a fixed hook and the other to an isometric force transducer. Resting tension was set at 4 g for the aorta and 1 g for the jugular vein. […]
as §2

The subject of assay [5] is ricinoleic acid-induced force in the jugular vein (thromboxane A2 receptors). The experiment in a line: Antagonism of ricinoleic acid-induced force in the jugular vein. The format is cell-based, rabbit. Particulars: vein. How it is done: Male New Zealand white rabbits were euthanized by intravenous barbiturate overdose. The thoracic aorta and the left and right external jugular veins were then removed into warm (37° C.) physiological salt solution (PSS) of the following composition (mM): NaCl, 118.4; KCl, 4.7; CaCl2, 2.5; MgSO4, 1.2; NaHCO3, 24.9; KH2 PO4, 1.2; glucose, 11.1 and EDTA, 0.023; gassed with 95% O2 /5% CO2, pH 7.4. The vessels were cleaned of fat and loose adventitia and subsequently cut into rings 3-4 mm in width. The endothelium was removed from the rings, unless otherwise indicated, by gently rotating a metal probe in the lumen of the ring. The rings were then suspended in water-jacketed (37° C.) 10 ml tissue baths between two wire holders, one of which was attached to a fixed hook and the other to an isometric force transducer. Resting tension was set at 4 g for the aorta and 1 g for the jugular vein. The venous tissues were allowed to stabilize for a period of one hour and then challenged with a maximally effective concentration of bradykinin (1 μM) to evoke a tonic contracture. This response was used as a comparative reference response. Carbachol (1 μM) was introduced into the bath following stabilization of the bradykinin contracture to test for the presence of endothelium. […] The tissues were washed multiple times with fresh PSS and allowed to recover for one hour following complete relaxation from the previous bradykinin response. […] Inhibitors (enzyme or receptor) or their vehicle were introduced into the tissue bath 30 mins prior to the addition of stimulant. A similar procedure was followed for the aorta except the effects of carbachol (1 μM) were tested against a submaximal concentration of phenylephrine (0.3 μM) and 30 μM phenylephrine was used to establish a reference contracture.
(§3) Cremophor and ricinoleic acid (Sigma Chemical company) were also diluted in ethanol. […] Ricinoleic acid was diluted in ethanol to produce final bath concentrations of (μg/ml; final bath concentration of ethanol in parentheses): 0.1 (0.1%), 0.3 (0.3%), 1.0 (0.37%), 3.0 (0.57%), 10 (0.64%), 30 (0.84%). For reference, 0.1-30 μg/ml ricinoleic acid corresponds to a molar concentration range of 0.335-100.50 μM.
as §2

The subject of assay [6] is U-46,619-evoked platelet shape change. Particulars: Ogletree et al 1993; cited from earlier work.
The target of assay [7] is thromboxane A2 /prostaglandin endoperoxide receptor. Particulars: against U-46,619-induced force; rat aorta; Ogletree et al 1993; cited from earlier work.
Assay [8] relates to Cremophor-induced force development in the jugular vein (thromboxane A2 receptors). Put plainly: Inhibition of Cremophor-induced force in the jugular vein. The format is cell-based, rabbit. How it is done: (§4) Male New Zealand white rabbits were euthanized by intravenous barbiturate overdose. The thoracic aorta and the left and right external jugular veins were then removed into warm (37° C.) physiological salt solution (PSS) of the following composition (mM): NaCl, 118.4; KCl, 4.7; CaCl2, 2.5; MgSO4, 1.2; NaHCO3, 24.9; KH2 PO4, 1.2; glucose, 11.1 and EDTA, 0.023; gassed with 95% O2 /5% CO2, pH 7.4. The vessels were cleaned of fat and loose adventitia and subsequently cut into rings 3-4 mm in width. The endothelium was removed from the rings, unless otherwise indicated, by gently rotating a metal probe in the lumen of the ring. The rings were then suspended in water-jacketed (37° C.) 10 ml tissue baths between two wire holders, one of which was attached to a fixed hook and the other to an isometric force transducer. Resting tension was set at 4 g for the aorta and 1 g for the jugular vein. The venous tissues were allowed to stabilize for a period of one hour and then challenged with a maximally effective concentration of bradykinin (1 μM) to evoke a tonic contracture. This response was used as a comparative reference response. Carbachol (1 μM) was introduced into the bath following stabilization of the bradykinin contracture to test for the presence of endothelium. […] The tissues were washed multiple times with fresh PSS and allowed to recover for one hour following complete relaxation from the previous bradykinin response. […] Inhibitors (enzyme or receptor) or their vehicle were introduced into the tissue bath 30 mins prior to the addition of stimulant.
as §3, §2

In assay [9] the target is T2, ricinoleic acid-induced force in the aorta (thromboxane A2 receptors) (Oryctolagus cuniculus, UniProt Q6WQI8).
T2 sequence (Q6WQI8 1-233): T1 sequence (Q6WQI8 1-233)
Put plainly: Antagonism of ricinoleic acid-induced force in the aorta. Type of assay: cell-based, rabbit. As for the experimental part:
as §1, §2

A further assay concerns thromboxane A2 receptors. Put plainly: Potency of U-46,619 across rabbit jugular vein, rabbit aorta and rat aorta. Type of assay: cell-based. Particulars: rabbit aorta, rat aorta, present study and cited work.
Assay [10] has as its system tissues with an intact endothelium. The experiment in a line: Relaxation of endothelium-intact tissues by carbachol. Type of assay: cell-based, rabbit. Particulars: Oryctolagus cuniculus; carbachol (1 μM) on bradykinin contracture. How it is done:
Male New Zealand white rabbits were euthanized by intravenous barbiturate overdose. The thoracic aorta and the left and right external jugular veins were then removed into warm (37° C.) physiological salt solution (PSS) of the following composition (mM): NaCl, 118.4; KCl, 4.7; CaCl2, 2.5; MgSO4, 1.2; NaHCO3, 24.9; KH2 PO4, 1.2; glucose, 11.1 and EDTA, 0.023; gassed with 95% O2 /5% CO2, pH 7.4. The vessels were cleaned of fat and loose adventitia and subsequently cut into rings 3-4 mm in width. The endothelium was removed from the rings, unless otherwise indicated, by gently rotating a metal probe in the lumen of the ring. The rings were then suspended in water-jacketed (37° C.) 10 ml tissue baths between two wire holders, one of which was attached to a fixed hook and the other to an isometric force transducer. Resting tension was set at 4 g for the aorta and 1 g for the jugular vein. The venous tissues were allowed to stabilize for a period of one hour and then challenged with a maximally effective concentration of bradykinin (1 μM) to evoke a tonic contracture. This response was used as a comparative reference response. Carbachol (1 μM) was introduced into the bath following stabilization of the bradykinin contracture to test for the presence of endothelium. […]

For assay [11], the target named is T3, CsA-induced force development in the jugular vein (thromboxane A2 receptors) (Oryctolagus cuniculus, UniProt Q6WQI8).
T3 sequence (Q6WQI8 1-233): T1 sequence (Q6WQI8 1-233)
The experiment in a line: Inhibition of CsA-induced force in the jugular vein. The format is cell-based, rabbit. Particulars: CsA 3 μg/ml; present results. As for the experimental part: as §4, §3, §2

“Also recorded” adds a separate entry of the source. Counter-ions that a name gives are not always drawn. Like-named read-outs stand apart in the source and are kept apart here.

In the case of `CCCCCNC(=O)c1coc(C2C3CCC(O3)C2Cc2ccccc2CCC(=O)O)n1` (stereo not drawn) [BMS-180291, [1S-[1α, 2α, 3α, 4α)]-2-[[3-[[4-(pentylamino)carbonyl]-2-oxazolyl]-7-oxabicyclo [2.2.1]hept-2-yl]-methyl]benzenepropanoic acid, sodium salt], the Kb in assay [1] was 4 nM; in [2] (against U-46,619-induced force), 3.6 nM; in assay [4] (Oryctolagus cuniculus, against Cremophor-induced force, assuming competitive antagonism, 0.03 μM BMS-180291 only, read-out: KBapp), 6.4 nM; in assay [5] (Oryctolagus cuniculus, against ricinoleic acid, assuming competition, 0.03 and 0.1 μM BMS-180291 only, read-out: KBapp) it was 1.9 nM; in [7], 0.6 nM; in assay [9] (against ricinoleic acid, rabbit aorta, assuming competition), 4.3 nM. Further, the Schild slope in [2] (against U-46,619-induced force) is 1.0; in assay [9] (against ricinoleic acid, rabbit aorta), 0.70. Further, in assay [2] (sodium salt), the “Nature of antagonism of U-46,619-induced force” value was “apparently competitive antagonist”. The “Nature of inhibition of platelet aggregation” value in assay [3] was “apparently non-competitive fashion”. The “Effect on contractile effects of ethanol” value in the assay on jugular vein was “completely refractory”. Further, the “Effect on Cremophor-induced force in the aorta” value in assay [4] (BMS-180291) was “inhibited”. Also, the “Antagonism of ricinoleic acid-induced force” value in assay [5] and in assay [9] (aorta) was “concentration-dependent antagonism” throughout. In [6], the “Nature of antagonism of platelet shape change” value is “apparently competitive fashion”. Further, in assay [8] (Oryctolagus cuniculus, 0.1 μM BMS-180291, Cremophor 39 μg/ml, n=4, read-out: Relaxation of Cremophor-precontracted jugular vein), the inhibition at 0.1 µM was determined as 85.6 ± 3.9%. In assay [8] (preincubation with BMS-180291 (10-300 nM), sodium salt), the “Nature of antagonism of Cremophor-induced responses” value is “consistent with non-competitive antagonism; also recorded: apparently non-competitive fashion”.

On to `CCCCCC(O)C=CC1C2CC(CO2)C1CC=CCCCC(=O)O` (centres unmarked) [U-46,619, 11,9-epoxymethano-PGH2], for which, in the assay on thromboxane A2 receptors, the “Potency across the three tissues” value is listed as “approximately equal potency in all three tissues”.

For the compound `C[N+](C)(C)CCOC(N)=O` [carbachol], the Percent relaxation at 1 µM in assay [10] lay within 50 to 100%.

Take `CC1(C)Oc2ccc(C#N)cc2C(N2CCCC2=O)C1O` (centres unmarked) [cromakalim]: the “Effect on CsA-induced force” value in [11] was “evoke relaxation of CsA (3 μg/ml CsA)-induced force”.
